The text below walks through data of PMC10726465, “Synthesis and Evaluation of Small Molecule Inhibitors of the Androgen Receptor N-Terminal Domain” (ACS Medicinal Chemistry Letters, 2023).

One may read the IC50 as the concentration that gives 50% inhibition.

This data set deals with T1, androgen receptor (AR) (Homo sapiens, UniProt P10275).
T1 sequence (P10275 1-920): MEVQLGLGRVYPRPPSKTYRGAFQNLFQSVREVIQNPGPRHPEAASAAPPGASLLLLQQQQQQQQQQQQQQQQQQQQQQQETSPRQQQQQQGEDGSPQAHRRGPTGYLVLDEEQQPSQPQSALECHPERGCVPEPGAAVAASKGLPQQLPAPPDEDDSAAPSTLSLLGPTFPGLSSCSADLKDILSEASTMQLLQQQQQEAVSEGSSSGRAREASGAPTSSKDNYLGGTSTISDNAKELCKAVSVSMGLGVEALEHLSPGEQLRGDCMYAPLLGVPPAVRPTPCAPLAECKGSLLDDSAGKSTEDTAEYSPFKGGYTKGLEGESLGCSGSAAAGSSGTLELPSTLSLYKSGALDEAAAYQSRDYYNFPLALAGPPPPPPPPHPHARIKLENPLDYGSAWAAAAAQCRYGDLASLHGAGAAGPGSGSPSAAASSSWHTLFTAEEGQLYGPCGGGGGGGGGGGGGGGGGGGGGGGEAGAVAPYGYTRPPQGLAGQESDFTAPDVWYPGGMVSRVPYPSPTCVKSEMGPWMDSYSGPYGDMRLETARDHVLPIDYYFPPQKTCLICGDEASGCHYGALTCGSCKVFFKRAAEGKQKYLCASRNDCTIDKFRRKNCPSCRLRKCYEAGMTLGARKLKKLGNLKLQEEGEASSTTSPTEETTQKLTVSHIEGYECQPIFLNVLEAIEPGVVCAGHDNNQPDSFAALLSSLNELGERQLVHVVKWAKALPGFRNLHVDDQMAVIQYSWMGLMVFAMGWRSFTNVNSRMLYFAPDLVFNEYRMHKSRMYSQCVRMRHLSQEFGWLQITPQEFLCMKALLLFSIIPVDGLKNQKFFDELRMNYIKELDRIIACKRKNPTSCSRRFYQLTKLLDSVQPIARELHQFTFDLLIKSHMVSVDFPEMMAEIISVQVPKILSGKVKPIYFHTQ
Particulars: for Ligand Efficiency (LE): from VCaP GRE2-luciferase IC50; for Lipophilic Ligand Efficiency (LLE): from VCaP GRE2-luciferase IC50 and cLogP.

The mark [1] stands for this setting: read-out: VCaP GRE2-luciferase IC50, VCaP cells, 1 nM DHT, 24 h, 0–30 µM compound.

Like-named read-outs stand apart in the source and are kept apart here.

Procedure: VCaP cells, obtained from the American Type Culture Collection, were maintained in Dulbecco’s Modified Eagles Medium (DMEM) supplemented with 10% foetal bovine serum. Cells were maintained at 37°C without antibiotics in a humidified atmosphere
Transient transfection and Luciferase Activity Assay:
Cells at 70–80% confluence in 24 well plates, were transferred to DMEM
300ng/well of the firefly reporter plasmid, GRE2-TATA-luc using JetPEI (PolyPLUS Transfection) according to the manufacturers’ protocol.
replaced with fresh DMEM +5% CSS containing either DMSO (vehicle control) or 0– 30 µM small molecules together with 1nM DHT. Twenty four hours later, medium was aspirated, cells were washed with PBS and extracted with Passive Lysis Buffer
Cell debris was removed by centrifugation at 13,000 xg for 5min and supernatants collected. Luciferase activity was measured in triplicate, using an in-house luciferase assay buffer (13 mM MgSO4 7H2O, 30 mM
amount of total cellular protein.
Inhibition of hormone-dependent expression of prostate specific antigen (PSA):
VCaP prostate cells were treated with 1 nM DHT in the absence or presence of inhibitor. After 24 hours cells were harvested and PSA detected by Western blotting and normalised against β-actin.
Luciferase activity in cells treated with small molecules was determined as a percentage of the untreated control, which was set at 100%. Plots of activity against small molecule concentration (log) were analysed in GraphPad PRISM 5 and IC50 values for each small molecule determined.

In the case of `CSc1ccc(C(N)=O)cc1-c1ccno1` [Compound 7], the “Ligand Efficiency (LE)” value is 0.70 and the “Lipophilic Ligand Efficiency (LLE)” value is 6.7. Besides, under setting [1], the IC50 was 7.4 µM.

In the case of `CSc1ccc(C(N)=O)cc1-c1ccccc1` [Compound 8], the “Ligand Efficiency (LE)” value was 0.61 and the “Lipophilic Ligand Efficiency (LLE)” value stood at 4.6. In addition, under “VCaP cells, 1 nM DHT”, the “activity in VCaP GRE2-luciferase assay (in words)” value (from here on “activity … (in words)”) was “inactive”. Also, the half-maximal inhibitory concentration (IC50) under setting [1] is above 30 µM.

In the case of `CSc1ccc(C(N)=O)cc1-c1cccs1` [Compound 9], the “Ligand Efficiency (LE)” value stood at 0.79 and the “Lipophilic Ligand Efficiency (LLE)” value is on record as 6.3. In addition, the IC50 under setting [1] came out at 0.6 µM.

As for `CSc1ccc(C(N)=O)cc1-c1c(C)noc1C` [Compound 10], the “Ligand Efficiency (LE)” value came out at 0.63 and the “Lipophilic Ligand Efficiency (LLE)” value was 6.2. Besides, the 50% inhibitory concentration (IC50) under setting [1] was found to be 4.7 µM.

Turning to `CSc1ccc(C(N)=O)cc1-c1ccc[nH]1` [Compound 11], the “Lipophilic Ligand Efficiency (LLE)” value came out at 5.8. Further, the “activity … (in words)” value (VCaP cells, 1 nM DHT) is “no activity”. Moreover, the concentration for half-maximal inhibition (IC50) under setting [1] is above 30 µM.

In the case of `CSc1ccc(C(N)=O)cc1-c1ccc2[nH]ncc2c1` [Compound 12], the “Ligand Efficiency (LE)” value came to 0.59 and the “Lipophilic Ligand Efficiency (LLE)” value came to 6.6. Moreover, the IC50 under setting [1] came to 0.7 µM.

`CSc1ccc(C(N)=O)cc1-c1ccc2[nH]ccc2c1` [Compound 13]: the “Ligand Efficiency (LE)” value stood at 0.54 and the “Lipophilic Ligand Efficiency (LLE)” value is recorded as 5.1. For the setting “VCaP GRE2-luciferase IC50 ratio”, the “decrease in activity relative to indazole 12” value is reported as 10 fold. Besides, under setting [1], the IC50 turned out to be 10.3 µM.

Take `CSc1ccc(C(N)=O)cc1-c1ccc2cn[nH]c2c1` [Compound 14]: the “Ligand Efficiency (LE)” value was determined as 0.63 and the “Lipophilic Ligand Efficiency (LLE)” value amounted to 7.1. Also, under setting [1], the IC50 is 2.2 µM.

On to `CSc1ccc(C(N)=O)cc1-c1ccc2[nH]cnc2c1` [Compound 15], for which the “Ligand Efficiency (LE)” value is 0.62 and the “Lipophilic Ligand Efficiency (LLE)” value was found to be 6.6. The IC50 under setting [1] amounted to 0.92 µM.

Consider `CSc1ccc(C(N)=O)cc1-c1ccc2c(ccn2C)c1` [Compound 17], for which the “Ligand Efficiency (LE)” value turned out to be 0.66 and the “Lipophilic Ligand Efficiency (LLE)” value is reported as 7.0. Besides, the IC50 under setting [1] worked out at 0.09 µM.

With `CSc1ccc(C(N)=O)cc1-c1ccc2nccn2c1` [Compound 18], the “Ligand Efficiency (LE)” value was 0.52 and the “Lipophilic Ligand Efficiency (LLE)” value is reported as 5.7. Further, for the setting “VCaP cells, 1 nM DHT”, the “activity … (in words)” value is given as “no activity”. Under setting [1], the IC50 is above 30 µM.

With `CSc1ccc(C(N)=O)cc1-c1cccc2c1CC(=O)N2` [Compound 19], the “Ligand Efficiency (LE)” value was 0.49 and the “Lipophilic Ligand Efficiency (LLE)” value is 5.5. Further, the “activity … (in words)” value (VCaP cells, 1 nM DHT) is “no activity”. The IC50 under setting [1] was above 30 µM.

In the case of `CSc1ccc(C(N)=O)cc1-c1ccc2ncccc2c1` [Compound 20], the “Ligand Efficiency (LE)” value stood at 0.59 and the “Lipophilic Ligand Efficiency (LLE)” value was found to be 5.9. For the same molecule, under setting [1], the IC50 was determined as 0.8 µM.

With `CSc1ccc(C(N)=O)cc1-c1ccc2cnccc2c1` [Compound 21], it took 0.9 µM to reach half-maximal inhibition (IC50), the “Ligand Efficiency (LE)” value was determined as 0.59 and the “Lipophilic Ligand Efficiency (LLE)” value is 6.0.

As for `CSc1ccc(C(N)=O)cc1-c1cccnc1` [Compound 22], the “Ligand Efficiency (LE)” value worked out at 0.61 and the “Lipophilic Ligand Efficiency (LLE)” value is on record as 5.6. The “activity … (in words)” value (VCaP cells, 1 nM DHT) was “loss of activity”. For the same molecule, the IC50 under setting [1] is above 30 µM.

For `CSc1ccc(C(N)=O)cc1-c1ccncc1` [Compound 23], the “Ligand Efficiency (LE)” value is on record as 0.61 and the “Lipophilic Ligand Efficiency (LLE)” value worked out at 5.6. The “activity … (in words)” value (VCaP cells, 1 nM DHT) is reported as “loss of activity”. For the same molecule, the IC50 under setting [1] was above 30 µM.

With `CSc1ccc(C(N)=O)cc1-c1cncnc1` [Compound 24], the “Ligand Efficiency (LE)” value came out at 0.77 and the “Lipophilic Ligand Efficiency (LLE)” value is reported as 8.2. In addition, under setting [1], the half-maximal inhibitory concentration (IC50) was 0.27 µM.

Regarding `CSc1ccc(C(N)=O)cc1-c1ccc2occc2c1` [Compound 25], the “Ligand Efficiency (LE)” value was found to be 0.63 and the “Lipophilic Ligand Efficiency (LLE)” value is listed as 5.9. Besides, the IC50 under setting [1] was found to be 0.6 µM.

Turning to `CSc1ccc(C(N)=O)cc1-c1ccc2ocnc2c1` [Compound 26], the “Ligand Efficiency (LE)” value is 0.52 and the “Lipophilic Ligand Efficiency (LLE)” value is 4.6. Moreover, the IC50 under setting [1] is above 30 µM.

Regarding `CSc1ccc(C(N)=O)cc1-c1ccc2c(c1)CCO2` [Compound 27], the “Ligand Efficiency (LE)” value was found to be 0.52 and the “Lipophilic Ligand Efficiency (LLE)” value turned out to be 4.4. Besides, the IC50 under setting [1] is above 30 µM.

Consider `COc1ccc(-c2cc(C(N)=O)ccc2SC)cc1OC` [Compound 28], for which the “Ligand Efficiency (LE)” value is given as 0.49 and the “Lipophilic Ligand Efficiency (LLE)” value was determined as 4.8. Further, the “activity … (in words)” value (VCaP cells, 1 nM DHT) was “Activity was abolished”. Besides, the IC50 under setting [1] was above 30 µM.

`COc1ccc(-c2cc(C(N)=O)ccc2SC)cc1F` [Compound 29]: the “Ligand Efficiency (LE)” value was 0.63 and the “Lipophilic Ligand Efficiency (LLE)” value is 6.2. Moreover, under setting [1], the IC50 turned out to be 0.76 µM.

Regarding `COc1cc(-c2cc(C(N)=O)ccc2SC)ccc1N` [Compound 30], the “Ligand Efficiency (LE)” value is given as 0.52 and the “Lipophilic Ligand Efficiency (LLE)” value is 5.4. Moreover, the “activity … (in words)” value (VCaP cells, 1 nM DHT) was “loss of activity”. Under setting [1], the IC50 was above 30 µM.

Turning to `CSc1ccc(C(N)=O)cc1-c1cccc(O)c1F` [Compound 31], the “Ligand Efficiency (LE)” value was 0.54 and the “Lipophilic Ligand Efficiency (LLE)” value is on record as 4.9. In addition, the “activity … (in words)” value (VCaP cells, 1 nM DHT) was “inactive”. Further, the IC50 under setting [1] is above 30 µM.

Turning to `CSc1ccc(C(N)=O)cc1-c1cc(O)cc(F)c1` [Compound 32], the “Ligand Efficiency (LE)” value worked out at 0.54 and the “Lipophilic Ligand Efficiency (LLE)” value came to 4.9. For the same molecule, the “activity … (in words)” value (VCaP cells, 1 nM DHT) was “inactive”. Moreover, under setting [1], the IC50 is above 30 µM.

On to `CSc1ccc(C(N)=O)cc1-c1ccc(F)c(O)c1` [Compound 33], for which the “Ligand Efficiency (LE)” value is reported as 0.72 and the “Lipophilic Ligand Efficiency (LLE)” value turned out to be 7.3. For the same molecule, the IC50 under setting [1] worked out at 0.12 µM.

For the molecule `CSc1ncc(C(N)=O)cc1-c1ccc2c(cnn2C)c1` [Compound 34], the “Ligand Efficiency (LE)” value was 0.49 and the “Lipophilic Ligand Efficiency (LLE)” value was 6.2. Also, the “activity … (in words)” value (VCaP cells, 1 nM DHT) is recorded as “loss of activity”. Besides, the IC50 under setting [1] is above 30 µM.

Regarding `Cn1ncc2cc(-c3cc(C(N)=O)cnc3SCc3ccccc3)ccc21` [Compound 35], the “Ligand Efficiency (LE)” value turned out to be 0.38 and the “Lipophilic Ligand Efficiency (LLE)” value worked out at 4.7. The IC50 under setting [1] is above 30 µM.

As for `Cn1ncc2cc(-c3cncc(C(N)=O)c3)ccc21` [Compound 36], the “Ligand Efficiency (LE)” value is recorded as 0.54 and the “Lipophilic Ligand Efficiency (LLE)” value is reported as 6.7. In addition, the IC50 under setting [1] was above 30 µM.

In the case of `COc1ncc(C(N)=O)cc1-c1ccc2c(cnn2C)c1` [Compound 37], the “Ligand Efficiency (LE)” value turned out to be 0.49 and the “Lipophilic Ligand Efficiency (LLE)” value is 6.5. The IC50 under setting [1] is above 30 µM.

`CSc1c(F)cc(C(N)=O)cc1-c1ccc2c(cnn2C)c1` [Compound 38]: the “Ligand Efficiency (LE)” value was found to be 0.60 and the “Lipophilic Ligand Efficiency (LLE)” value was determined as 7.3. Moreover, the IC50 under setting [1] stood at 0.24 µM.

Consider `CSc1cc(C(N)=O)cc(-c2ccc3c(cnn3C)c2)c1` [Compound 39], for which the “Ligand Efficiency (LE)” value came to 0.49 and the “Lipophilic Ligand Efficiency (LLE)” value came out at 5.3. Further, the “activity … (in words)” value (VCaP cells, 1 nM DHT) is “inactive”. The 50% inhibitory concentration (IC50) under setting [1] was above 30 µM.

As to `Cn1ncc2cc(-c3cc(C(N)=O)ccc3SCc3ccccc3)ccc21` [Compound 40], the “Ligand Efficiency (LE)” value came out at 0.44 and the “Lipophilic Ligand Efficiency (LLE)” value is reported as 4.9. Under setting [1], the IC50 worked out at 2.2 µM.

Consider `Cc1ccc(C(N)=O)cc1-c1ccc2c(cnn2C)c1` [Compound 41], for which the “Ligand Efficiency (LE)” value is given as 0.52 and the “Lipophilic Ligand Efficiency (LLE)” value is reported as 5.4. Also, where the note is “VCaP cells, 1 nM DHT”, the “activity … (in words)” value was “loss of activity”. The IC50 under setting [1] was above 30 µM.

On to `CCc1ccc(C(N)=O)cc1-c1ccc2c(cnn2C)c1` [Compound 42], for which the “Ligand Efficiency (LE)” value is listed as 0.49 and the “Lipophilic Ligand Efficiency (LLE)” value was 5.0. Also, the “activity … (in words)” value (VCaP cells, 1 nM DHT) was “loss of activity”. The half-inhibitory concentration (IC50) under setting [1] was above 30 µM.

`Cn1ncc2cc(-c3cccc(C(N)=O)c3)ccc21` [Compound 43]: the “Ligand Efficiency (LE)” value is 0.54 and the “Lipophilic Ligand Efficiency (LLE)” value came out at 5.7. The “activity … (in words)” value (VCaP cells, 1 nM DHT) is given as “no bioactivity”. Further, the IC50 under setting [1] was above 30 µM.
